Experiments:
Assay in all cases: selective drug sensitivity score (sDSS, relative to normal bone marrow) (sDSS (score)); higher = more potent and effective on the cell line relative to normal bone marrow cells
Conditions in all cases: 72 h
[1] = test system: 697
[2] = test system: ALL-PO
[3] = test system: CCRF-HSB2
[4] = test system: COG-LL-319h
[5] = test system: COG-LL-402h
[6] = test system: DND-41
[7] = test system: KARPAS-45
[8] = test system: KASUMI-10
[9] = test system: KOPN-8
[10] = test system: MHH-CALL-2
[11] = test system: MOLT-4
[12] = test system: NALL-1
[13] = test system: NALM-16
[14] = test system: NALM-6
[15] = test system: P12-ICHIKAWA
[16] = test system: RCH-ACV
[17] = test system: REH
[18] = test system: SEM cells
[19] = test system: SUP-B15
[20] = test system: TMD5
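Note: ALL cell lines in 384-well plates, five doses spanning 10,000-fold, each plate scaled between vehicle and 100 µmol/L benzalkonium chloride controls, sDSS an adapted area-under-curve metric.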

Row | SMILES | selective drug sensitivity score [1] | selective drug sensitivity score [2] | selective drug sensitivity score [3] | selective drug sensitivity score [4] | selective drug sensitivity score [5] | selective drug sensitivity score [6] | selective drug sensitivity score [7] | selective drug sensitivity score [8] | selective drug sensitivity score [9] | selective drug sensitivity score [10] | selective drug sensitivity score [11] | selective drug sensitivity score [12] | selective drug sensitivity score [13] | selective drug sensitivity score [14] | selective drug sensitivity score [15] | selective drug sensitivity score [16] | selective drug sensitivity score [17] | selective drug sensitivity score [18] | selective drug sensitivity score [19] | selective drug sensitivity score [20]
1 | CO[C@H]1C[C@@H]2CC[C@@H](C)[C@@](O)(O2)C(=O)C(=O)N2CCCC[C@H]2C(=O)O[C@H]([C@H](C)C[C@@H]2CC[C@@H](OC(=O)C(C)(CO)CO)[C@H](OC)C2)CC(=O)[C@H](C)/C=C(\C)[C@@H](O)[C@@H](OC)C(=O)[C@H](C)C[C@H](C)/C=C/C=C/C=C/1C [Temsirolimus] (top concentration 100 nM) | 14.9 | 2.56 | 7.76 | 4.66 | 4.66 | 3.66 | 2.26 | -5.04 | 21.9 | -0.34 | -1.24 | -5.04 | 0.16 | -2.34 | -1.44 | 20.8 | 3.96 | 1.36 | 9.86 | -5.04
2 | O=C(c1cc(Cc2n[nH]c(=O)c3ccccc23)ccc1F)N1CCN(C(=O)C2CC2)CC1 [Olaparib] (top concentration 10000 nM) | 6.78 | -0.12 | 3.98 | 11.7 | 4.38 | 1.28 | 0.38 | 2.88 | 9.68 | 8.88 | 4.18 | 1.28 | -3.42 | 1.48 | -0.82 | 7.38 | 1.48 | 5.18 | 13.1 | 4.48
3 | O=C(O)C(=O)O.[NH-][C@@H]1CCCC[C@H]1[NH-].[Pt+2] [Oxaliplatin] (top concentration 100000 nM) | 16 | -0.78 | 15 | 15.6 | 12.9 | 1.42 | -0.08 | 14.2 | 16.9 | 13.9 | 12.4 | 2.92 | -1.48 | 6.12 | 8.32 | 11.6 | 10 | 8.52 | 16.6 | -0.08
4 | Nc1ncn([C@H]2C[C@H](O)[C@@H](CO)O2)c(=O)n1 [Decitabine] (top concentration 10000 nM) | 17.5 | 4.54 | 1.14 | 10.7 | 3.34 | -4.66 | -6.06 | -3.06 | 10.2 | 1.04 | -0.96 | -5.96 | -2.96 | -3.06 | 1.14 | 10.1 | 3.94 | 1.74 | 16.5 | -5.56
5 | CC(C)(C#N)c1cc(Cn2cncn2)cc(C(C)(C)C#N)c1 [Anastrozole] (top concentration 10000 nM) | 0 | 0 | 0 | 0 | 0 | 2.9 | 0 | 0 | 0 | 0 | 0 | 0 | 0 | 0 | 0 | 0 | 0 | 0 | 0 | 0.6
6 | Nc1nc(OCc2cc(Br)cs2)c2[nH]cnc2n1 [Lomeguatrib] (top concentration 10000 nM) | 0.4 | 0.5 | 0 | 0 | 0 | 0 | 0 | 0 | 0 | 0 | 0 | 0 | 0 | 0 | 0 | 0.8 | 1.2 | 0 | 0 | 0
7 | CCOC(=O)C1=CCCC[C@H]1S(=O)(=O)Nc1ccc(F)cc1Cl [Resatorvid] (top concentration 10000 nM) | 0 | 0 | 0 | 0 | 0.4 | 0 | 0 | 0 | 0.2 | 0 | 0 | 0 | 0 | 0 | 0 | 0 | 0 | 0 | 0 | 0
8 | CS(=O)(=O)N1CCN(Cc2cc3nc(-c4cccc5[nH]ncc45)nc(N4CCOCC4)c3s2)CC1 [Pictilisib] (top concentration 10000 nM) | 7.36 | 14.6 | 4.56 | 5.56 | 12.9 | -1.44 | 6.36 | 3.96 | 14.8 | 12.3 | 9.36 | -0.64 | 4.66 | 12.9 | 1.16 | 26.2 | 10.5 | 9.66 | 0.16 | 2.56
9 | Cc1cc(OCc2nnc(SC3CCCC3)n2-c2cccnc2)ccc1-c1ccc(S(C)(=O)=O)cc1 [NMS-873] (top concentration 10000 nM) | 14.1 | 4.36 | 10.5 | 10.3 | 2.56 | 4.46 | 11.4 | -0.14 | 4.06 | 6.76 | 17.4 | 3.26 | 2.86 | 7.36 | 19.9 | 11.7 | 12 | 5.06 | 10.6 | 2.26
